Laboratory results taken from ChEMBL document CHEMBL1153643, “Design, synthesis and evaluation of aspirin analogues having an additional carboxylate substituent for antithrombotic activity” (Bioorg Med Chem Lett, 2009).
The source made the active and inactive calls. No cut-off for these calls is given here.

How the values were obtained:
Format in all cases: cell-free
[1] = molecular target: Prostaglandin G/H synthase 1 (Homo sapiens) (UniProt P23219); experiment: Ratio of compound IC50 to aspirin IC50 for PGHS-1 in human platelet rich plasma assessed as inhibition of arachidonic acid-induced platelet aggregation
Sequence of Prostaglandin G/H synthase 1 (Homo sapiens) (P23219 whole entry): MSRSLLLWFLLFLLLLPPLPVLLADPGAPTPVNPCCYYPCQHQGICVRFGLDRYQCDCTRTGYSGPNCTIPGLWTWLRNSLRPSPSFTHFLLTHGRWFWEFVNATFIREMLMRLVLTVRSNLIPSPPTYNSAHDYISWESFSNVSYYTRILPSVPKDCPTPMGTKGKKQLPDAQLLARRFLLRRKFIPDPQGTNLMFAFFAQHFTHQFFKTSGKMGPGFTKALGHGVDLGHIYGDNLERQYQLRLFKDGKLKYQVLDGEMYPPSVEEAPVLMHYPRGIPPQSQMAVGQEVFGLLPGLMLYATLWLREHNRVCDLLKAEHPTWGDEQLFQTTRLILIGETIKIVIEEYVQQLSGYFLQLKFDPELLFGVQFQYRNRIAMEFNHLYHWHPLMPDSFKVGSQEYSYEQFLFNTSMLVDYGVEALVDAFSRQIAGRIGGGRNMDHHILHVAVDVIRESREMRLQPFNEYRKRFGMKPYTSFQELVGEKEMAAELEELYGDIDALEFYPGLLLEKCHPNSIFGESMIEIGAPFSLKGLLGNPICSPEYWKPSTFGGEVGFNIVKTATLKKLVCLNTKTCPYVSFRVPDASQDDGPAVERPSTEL

[2] = molecular target: Prostaglandin G/H synthase 1 (Homo sapiens) (UniProt P23219); experiment: Inhibition of PGHS-1 in human platelet rich plasma assessed as inhibition of U46619-induced platelet aggregation in human platelet rich plasma at 1000 um
[3] = molecular target: Prostaglandin G/H synthase 1 (Homo sapiens) (UniProt P23219); experiment: Inhibition of PGHS-1 in human platelet rich plasma assessed as inhibition of arachidonic acid-induced platelet aggregation at 1000 um treated 5 min before arachidonic acid challenge by turbidimetry

**Q.** With COC(=O)CCCCc1cccc(C(=O)OC)c1OC(C)=O as the molecule, how does the Ratio IC50 [1] read?
**A.** The Ratio IC50 was 15.

**Q.** What about the Activity [2] of the same molecule?
**A.** Its Activity is “inactive”.

**Q.** How did the Activity [3] turn out when CC(=O)Oc1c(CCCCC(=O)O)cccc1C(=O)O was run?
**A.** The Activity was “inactive”.

**Q.** CC(=O)Oc1c(C(=O)O)cccc1C(=O)CCCC(=O)O was tested. Which Activity [3] did it give?
**A.** Its Activity is “inactive”.

**Q.** How did the Activity [3] turn out when CC(=O)Oc1c(CCCC(=O)O)cccc1C(=O)O was run?
**A.** The Activity was “inactive”.
